The source of these data is article PMC11618697 (Nature Communications, 2024).

Residues, ends and D or L forms follow the SMILES beside them. *: point of attachment. Cbz = O=C(OCc1ccccc1)*

For data set [1], the system named is Hut78 cells. Briefly: IC50 assay, trypan blue exclusion count. In kind it is cell-based, human.
Data set [2] deals with HH cells. Briefly: Candidate PROTACs, cell viability by CCK8. In kind it is cell-based, human. The conditions noted are these: CCK8 (Fig 3c).
Data set [3] deals with CDK2, CDK6 and CDK7. In words: Western blot of other CDKs in Hut78 cells. The class given is cell-based, human.
Data set [4] deals with T1, CDK9 (Homo sapiens, UniProt P50750). In words: Western blot of CDK9 in Hut78 cells. The class given is cell-based. To be noted: for degradation of CDK9 (immunoblot): Hut78 cells.
The subject of data set [5] is Hut78 cells. In words: Cell proliferation assays. The class given is cell-based, human.
Data set [6] deals with human CD25. In words: IHC staining of human CD25 in Hut78 xenograft tumors. In kind it is in vivo, NSG mice.
Data set [7] concerns Foxp3 in HH and Hut78 cells. Briefly: Intracellular staining of Foxp3. The class given is cell-based, human. The conditions noted are these: 1 µM, 48 h.
The subject of data set [8] is CD25, CD5 and CD7 on HH and Hut78 cells. In words: Flow cytometry of CD25, CD5 and CD7. The class given is cell-based, human. The conditions noted are these: 2 µM, 48 hours.
The subject of data set [9] is RARα. In words: Western blot of RARα in Hut78 cells. In kind it is cell-based, human.
Data set [10] relates to HH tumors. In words: HH cell line derived xenograft in nude mice. In kind it is in vivo.
Data set [11] concerns RARA mRNA. In words: Q-PCR of RARA in Hut78 cells. In kind it is cell-based, human.
The target of data set [12] is T1, CDK9. The class given is cell-based. The conditions noted are these: Hut78; 10 μM for 2 h prior to 6-h of GT-02897 (100 nM).
Data set [13] deals with Hut78 cells. In words: Cell viability / cell death at fixed dose, trypan blue. To be noted: 250 nM, trypan blue (Supplementary Fig 4a).
Data set [14] deals with T1, CDK9. Briefly: Western blot of CDK9 in MOLT-4 cells. In kind it is cell-based. To be noted: MOLT-4 acute lymphoblastic leukemia cell line.
For data set [15], the system named is CDK9. In words: Western blot of CDK9 in HH cells. The conditions noted are these: HH cells (Fig 3b).
Data set [16] has as its system CDK9 (55 kDa) and CDK9 (42 kDa) mRNA. Briefly: Q-PCR of CDK9 isoforms in Hut78 cells. The class given is cell-based, human.
Data set [17] deals with Hut78 cell proteins. Briefly: Quantitative MS-based proteomics of Hut78 cells. The class given is cell-based, human.
The subject of data set [18] is HH cells. Briefly: IC50 assay, trypan blue exclusion count. In kind it is cell-based. The conditions noted are these: Homo sapiens, 48 h.
Data set [19] has as its system 293T cells. In words: Viability of normal cells, trypan blue. In kind it is cell-based, human.
The subject of data set [20] is Hut78 xenografts. In words: Hut78 cell line derived xenograft in NSG mice. In kind it is in vivo.
Data set [21] concerns the target T1, CDK9. Briefly: IHC staining of human CDK9 in Hut78 xenograft tumors. In kind it is in vivo, NSG mice. To be noted: intraperitoneal injection.
Data set [22] has as its target T1, CDK9. Briefly: DC50. The class given is cell-based. To be noted: CDK9 in Hut78 cells; 10 h.

T1 sequence (P50750 whole entry): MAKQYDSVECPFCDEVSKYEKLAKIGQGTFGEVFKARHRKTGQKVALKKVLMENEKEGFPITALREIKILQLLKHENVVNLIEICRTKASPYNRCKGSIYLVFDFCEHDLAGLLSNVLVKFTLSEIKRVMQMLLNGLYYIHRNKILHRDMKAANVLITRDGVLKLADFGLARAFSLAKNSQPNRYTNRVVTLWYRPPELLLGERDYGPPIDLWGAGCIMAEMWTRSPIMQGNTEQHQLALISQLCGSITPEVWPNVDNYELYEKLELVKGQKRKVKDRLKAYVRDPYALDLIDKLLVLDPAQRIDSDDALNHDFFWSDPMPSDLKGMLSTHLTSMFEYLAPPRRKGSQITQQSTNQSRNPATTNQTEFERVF

In data set [1] (Homo sapiens, HuT78, 48 h), `CC(C)(C)c1cnc(CSc2cnc(NC(=O)C3CCN(C(=O)CCCSc4cccc5c4C(=O)N(C4CCC(=O)NC4=O)C5=O)CC3)s2)o1` (centres unmarked) [Compound 9, N-(5-(((5-(tert-butyl)oxazol-2-yl)methyl)thio)thiazol-2-yl)-1-(4-((2-(2,6-dioxopiperidin-3-yl)-1,3-dioxoisoindolin-4-yl)thio)butanoyl)piperidine-4-carboxamide] showed an IC50 of 339 nM. Moreover, in [2], the “concentration displaying significant killing effects” value is “below 500 nM”.

Consider `CC(C)(C)c1cnc(CSc2cnc(NC(=O)C3CCN(CCCCCCCSc4cccc5c4C(=O)N(C4CCC(=O)NC4=O)C5=O)CC3)s2)o1` (centres unmarked) [Compound 26, N-(5-(((5-(tert-butyl)oxazol-2-yl)methyl)thio)thiazol-2-yl)-1-(7-((2-(2,6-dioxopiperidin-3-yl)-1,3-dioxoisoindolin-4-yl)thio)heptyl)piperidine-4-carboxamide], for which the “protein levels of CDK2, CDK6 and CDK7 (immunoblot)” value (“protein levels of CDK2” for short) in data set [3] was “without interfering protein levels of CDK2, CDK6 and CDK7”. In addition, the “degradation of CDK9 (immunoblot)” value in [4] is listed as “strong degradation of CDK9”. The same compound came in with an IC50 in [1] (Homo sapiens, HuT78, 48 h) of 50 to 165 nM.

Take `CC(C)(C)c1cnc(CSc2cnc(NC(=O)C3CCN(CCCCCCCCSc4cccc5c4CN(C4CCC(=O)NC4=O)C5=O)CC3)s2)o1` (centres unmarked) [Compound 24, N-(5-(((5-(tert-butyl)oxazol-2-yl)methyl)thio)thiazol-2-yl)-1-(8-((2-(2,6-dioxopiperidin-3-yl)-1-oxoisoindolin-4-yl)thio)octyl)piperidine-4-carboxamide]: in data set [3], the “protein levels of CDK2” value is “without interfering protein levels of CDK2, CDK6 and CDK7”. Besides, the “degradation of CDK9 (immunoblot)” value in [4] is listed as “strong degradation of CDK9”.

`CC1=C(/C=C/C(C)=C/C=C/C(C)=C/C(=O)O)C(C)(C)CCC1` [ATRA, all-trans retinoic acid]: the “CTCL cell growth and apoptosis” value in data set [5] (CTCL cells (Hut78, Fig 7g)) is on record as “significant inhibition of cell growth without cell apoptosis”. Besides, the “cell growth of shCDK9-infected Hut78 cells” value in data set [5] (Hut78 infected with shCDK9) is given as “more pronounced inhibition of cell growth”. In data set [6], the “CD25 expression in isolated tumor tissues (IHC)” value was “in vivo upregulation of CD25 expression”. Also, in data set [7], the “Expression of Foxp3” value is reported as “not changed”. For the same compound, in data set [8], the “CD5 and CD7 level (flow cytometry)” value is recorded as “unchanged”; the “CD25 expression (flow cytometry)” value was “emerging expression of CD25”.

Turning to `CN1CC[C@H](c2c(O)cc(O)c3c(=O)cc(-c4ccccc4Cl)oc23)[C@H](O)C1` [Flavopiridol], the “RARα protein (Western blot)” value in [9] was “did not yield upregulation of RARα”. The “HH tumors in xenograft models” value in data set [10] is “induced regression of HH tumors in vivo”. In data set [11], the “mRNA level of RARA” value is reported as “nor did it affect the mRNA level of RARA”.

In the case of `CC(C)(C)c1cnc(CSc2cnc(NC(=O)C3CCNCC3)s2)o1` [SNS-032], in [12], the “effect of pre-treatment on degradation of CDK9 by GT-02897” value is “significantly dampened the degradation of CDK9”. Further, in [10], the “HH tumors in xenograft models” value is reported as “induced regression of HH tumors in vivo”.

For `CC(C)(C)c1cnc(CSc2cnc(NC(=O)C3CCN(CCCCCCCCSc4cccc5c4C(=O)N(C4CCC(=O)NC4=O)C5=O)CC3)s2)o1` (centres unmarked) [Compound 27, N-(5-(((5-(tert-butyl)oxazol-2-yl)methyl)thio)thiazol-2-yl)-1-(8-((2-(2,6-dioxopiperidin-3-yl)-1,3-dioxoisoindolin-4-yl)thio)octyl)piperidine-4-carboxamide], the 50% inhibitory concentration (IC50) in data set [1] (Homo sapiens, HuT78, 48 h) lay within 50 to 165 nM.

Regarding `O=C1NCCc2[nH]c(-c3ccncc3)cc21` [PHA-767491, reference compound], in data set [12], the “effect of pre-treatment on degradation of CDK9 by GT-02897” value is given as “significantly dampened the degradation of CDK9”. In data set [1] (Hut78 cells, 48-h, trypan blue), this compound returned an IC50 of 926 nM.

As to `CC(C)(C)c1cnc(CSc2cnc(NC(=O)C3CCN(CC(=O)NCCOCCOCCOCCNc4cccc5c4C(=O)N(C4CCC(=O)NC4=O)C5=O)CC3)s2)o1` (centres unmarked) [THAL-SNS-032], in data set [13], the “killing in CTCL cells” value is given as “nor did it display effective killing”. Besides, the “CDK9 protein (Western blot)” value is given as “induced significant loss of CDK9” in [14] and “did not disturb CDK9 protein” in [15].

With `CC(C)(C)c1cnc(CSc2cnc(NC(=O)C3CCN(CCCCCSc4cccc5c4CN(C4CCC(=O)NC4=O)C5=O)CC3)s2)o1` (centres unmarked) [Compound 23, N-(5-(((5-(tert-butyl)oxazol-2-yl)methyl)thio)thiazol-2-yl)-1-(5-((2-(2,6-dioxopiperidin-3-yl)-1-oxoisoindolin-4-yl)thio)pentyl)piperidine-4-carboxamide], the “mRNA expression of CDK9 (42 kDa) and CDK9 (55 kDa) isoforms” value in data set [16] is listed as “not affected”. Further, in [17] (6 h after treatment, 5,689 proteins), the “CDK9 abundance in quantitative proteomics” value is “one of the most significantly downregulated proteins”. Also, the RARα protein entry in data set [17] (proteomics 12 hours, validated by western blot) is listed as “significantly upregulated”. Besides, in data set [5] (Hut78, in vitro, cell number by trypan blue), the “inhibition of CTCL cells, co-administration with ATRA” value was “more significant inhibition of CTCL cells”. Besides, in [3], the “protein levels of CDK2” value was “without interfering protein levels of CDK2, CDK6 and CDK7”. Moreover, the IC50 in [18] was 66.2 nM; in data set [1] (Homo sapiens, HuT78, 48 h), 49.7 nM. Also, the “killing effects on 293T cell” value in data set [19] was “minimal killing effects”. For the same compound, the “CTCL tumors in vivo, co-administration with ATRA” value in data set [20] (Hut78 xenograft) is listed as “more significant inhibition of CTCL tumors in vivo”. For the same compound, the “Hut78 cell growth in vivo” value in data set [20] (every other day, intraperitoneal or subcutaneous injection, 14 days) is given as “significantly suppress Hut78 cell growth in vivo”. In addition, the “growth inhibition effect in CDK9-depleted (shRNA) Hut78 xenografts” value in data set [20] (shCDK9-1 or shCDK9-2) is listed as “significantly impaired the growth inhibition effect of GT-02897”. Moreover, the “CDK9 in isolated tumor tissues (IHC)” value in data set [21] is “in vivo degradation of CDK9 by GT-02897 was further confirmed”. Besides, the “degradation of CDK9 (immunoblot)” value in [4] is listed as “strong degradation of CDK9”. This compound also came in with a DC50 in data set [22] of 2.85 nM.

`CC(C)C[C@@H](C=O)NC(=O)[C@H](CC(C)C)NC(=O)[C@H](CC(C)C)NC(=O)OCc1ccccc1` [MG132, reference compound] (Cbz-Leu-Leu-Leu-aldehyde): the “effect of MG132 on CDK9 loss induced by GT-02897” value in [4] (Hut78, GT-02897 in presence or absence of MG132) was “reverted the expression of CDK9 protein”.

Take `CC(C)(C)c1cnc(CSc2cnc(NC(=O)C3CCN(CCCCSc4cccc5c4C(=O)N(C4CCC(=O)NC4=O)C5=O)CC3)s2)o1` (centres unmarked) [Compound 25, N-(5-(((5-(tert-butyl)oxazol-2-yl)methyl)thio)thiazol-2-yl)-1-(4-((2-(2,6-dioxopiperidin-3-yl)-1,3-dioxoisoindolin-4-yl)thio)butyl)piperidine-4-carboxamide]: the “protein levels of CDK2” value in [3] was “without interfering protein levels of CDK2, CDK6 and CDK7”. The “degradation of CDK9 (immunoblot)” value in [4] was “strong degradation of CDK9”. The concentration for half-maximal inhibition (IC50) in [1] (Homo sapiens, HuT78, 48 h) is 50 to 165 nM.

In the case of `CC(C)(C)c1cnc(CSc2cnc(NC(=O)C3CCN(C(=O)COCCOCCSc4cccc5c4C(=O)N(C4CCC(=O)NC4=O)C5=O)CC3)s2)o1` (centres unmarked) [Compound 19, N-(5-(((5-(tert-butyl)oxazol-2-yl)methyl)thio)thiazol-2-yl)-1-(2-(2-(2-((2-(2,6-dioxopiperidin-3-yl)-1,3-dioxoisoindolin-4-yl)thio)ethoxy)ethoxy)acetyl)piperidine-4-carboxamide], the IC50 in [1] (Homo sapiens, HuT78, 48 h) came out at 404 nM. For the same compound, the “concentration displaying significant killing effects” value in data set [2] is “below 500 nM”.
